Laboratory results from patent publication US9745328B2, “Flap modulators” (JANSSEN PHARMACEUTICA NV, priority 2013, dated 2017).
Where a name gives a salt, the structure may show the parent alone.

target: human FLAP (Homo sapiens (Human), UniProt P20292); experiment: FLAP binding assay (HTRF format); conditions: Table 6 (additional runs), human FLAP wild type
Method in brief: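 Binding values are averages from two separate assay plates, with each sample run in duplicate per plate. Data are expressed as an HTRF ratio.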

Chain of human FLAP (P20292 whole entry): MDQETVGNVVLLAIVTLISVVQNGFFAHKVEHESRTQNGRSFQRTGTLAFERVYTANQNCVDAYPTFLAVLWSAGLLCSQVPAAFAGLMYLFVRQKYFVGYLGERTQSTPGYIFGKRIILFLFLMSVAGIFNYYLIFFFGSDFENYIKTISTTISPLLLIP

Ki | SMILES
133 nM | Nc1ncc(-c2ccc(-c3ccccc3S(=O)(=O)N[C@@H]3CCCNC3=O)cc2F)cn1 [Example 266, 4′-(2-Aminopyrimidin-5-yl)-3′-fluoro-N-[(3R)-2-oxopiperidin-3-yl]biphenyl-2-sulfonamide trifluoroacetic acid salt]
3.9 nM | CCSc1ccccc1-c1ccc(-c2cnc3[nH]ccc3n2)c(F)c1 [Example 384, 2-[2′-(Ethylsulfanyl)-3-fluorobiphenyl-4-yl]-5H-pyrrolo[2,3-b]pyrazine]
1.5 nM | Nc1cnc(-c2ccc(-c3ccccc3S(=O)(=O)NCC3CCC3)cc2F)cn1 [Example 9, 4′-(5-Aminopyrazin-2-yl)-N-(cyclobutylmethyl)-3′-fluorobiphenyl-2-sulfonamide]
0.5 nM | Nc1cnc(-c2ccc(-c3ccccc3S(=O)(=O)N(CCO)C3CCCCC3)cc2F)cn1 [Example 136, 4′-(5-Aminopyrazin-2-yl)-N-cyclohexyl-3′-fluoro-N-(2-hydroxyethyl)biphenyl-2-sulfonamide]
1.2 nM | Nc1cnc(-c2ccc(-c3ccccc3Sc3ncncc3N)cc2F)cn1 [Example 217, 4-{[4′-(5-Aminopyrazin-2-yl)-3′-fluorobiphenyl-2-yl]sulfanyl}pyrimidin-5-amine hydrochloride]
0.7 nM | C[C@H](NS(=O)(=O)c1ccccc1-c1ccc(-c2cnc(N)cn2)c(F)c1)C(O)c1ccccc1 (stereo in doubt) [Example 83, 4′-(5-Aminopyrazin-2-yl)-3′-fluoro-N-[(1S,2R)-2-hydroxy-1-methyl-2-phenylethyl]biphenyl-2-sulfonamide]
2.4 nM | CC(C)CNS(=O)(=O)c1ccccc1-c1ccc(-c2cnc(N)nc2)c(F)c1 [Example 294, 4′-(2-Aminopyrimidin-5-yl)-3′-fluoro-N-(2-methylpropyl)biphenyl-2-sulfonamide trifiuoroacetic acid salt]
0.4 nM | CC(C)(C)NS(=O)(=O)c1ccccc1-c1ccc(-c2cnc(N)cn2)c(F)c1 [Example 4, 4′-(5-Aminopyrazin-2-yl)-N-(tert-butyl)-3′-fluoro-[1,1′-biphenyl]-2-sulfonamide]
0.4 nM | Nc1cnc(-c2ccc(-c3ccc(C(F)(F)F)cc3S(=O)(=O)NCCO)cc2F)cn1 [Example 210, 4′-(5-aminopyrazin-2-yl)-3′-fluoro-N-(2-hydroxyethyl)-4-(trifluoromethyl)biphenyl-2-sulfonamide]
0.8 nM | CC1(NS(=O)(=O)c2ccccc2-c2ccc(-c3cnc(N)cn3)c(F)c2)COC1 [Example 173, 4′-(5-Aminopyrazin-2-yl)-3′-fluoro-N-(3-methyloxetan-3-yl)biphenyl-2-sulfonamide]
5 nM | CCNS(=O)(=O)c1ccccc1-c1ccc(-c2cnc(N)cn2)c(F)c1 [Example 16, 4′-(5-Aminopyrazin-2-yl)-N-ethyl-3′-fluorobiphenyl-2-sulfonamide]
2.2 nM | Nc1cnc(-c2ccc(-c3ccccc3Sc3nccc(N)n3)cc2F)cn1 [Example 216, 2-{1,4′-(5-Aminopyrazin-2-yl)-3′-fluorobiphenyl-2-yl]sulfanyl}pyrimidin-4-amine hydrochloride]
0.9 nM | Nc1cnc(-c2ccc(-c3ccccc3S(=O)(=O)Nc3ccccc3)cc2F)cn1 [Example 26, 4′-(5-Aminopyrazin-2-yl)-3′-fluoro-N-phenylbiphenyl-2-sulfonamide]
156 nM | CC(C)(C)S(=O)(=O)c1ccccc1-c1ccc(-c2cnc(N)cn2)c(F)c1 [Example 194, 5-[2′-(tert-Butylsulfonyl)-3-fluorobiphenyl-4-yl]pyrazin-2-amine]
1.9 nM | Nc1ncc(-c2ccc(-c3ccccc3Sc3ccnc(N)n3)cc2F)cn1 [Example 335, 4-{[4′-(2-Aminopyrimidin-5-yl)-3′-fluorobiphenyl-2-yl]sulfanyl}pyrimidin-2-amine formate salt]
3.1 nM | CC(C)(NS(=O)(=O)c1ccccc1-c1ccc(-c2cnc(N)nc2)c(F)c1)C(F)(F)F [Example 296, 4′-(2-Aminopyrimidin-5-yl)-3′-fluoro-N-(2,2,2-trifluoro-1,1-dimethylethyl)biphenyl-2-sulfonamide trifluoroacetic acid salt]
1.8 nM | O=S(=O)(c1ccccc1-c1ccc(-c2cnc3c(c2)OCCN3)c(F)c1)N1CCCCC1 [Example 386, 7-[3-Fluoro-2′-(piperidin-1-ylsulfonyl)biphenyl-4-yl]-3,4-dihydro-2H-pyrido[3,2-b][1,4]oxazine]
1.6 nM | CC1(NS(=O)(=O)c2ccccc2-c2ccc(-c3cnc(N)cn3)c(F)c2)CCC1 [Example 11, 4′-(5-Aminopyrazin-2-yl)-3′-fluoro-N-(1-methylcyclobutyl)biphenyl-2-sulfonamide]
6.2 nM | Nc1cnc(-c2ccc(-c3ccccc3S(=O)(=O)NCCO)cc2F)cn1 [Example 88, 4′-(5-Aminopyrazin-2-yl)-3′-fluoro-N-(2-hydroxyethyl)biphenyl-2-sulfonamide]
0.4 nM | CC(C)(CCO)NS(=O)(=O)c1ccccc1-c1ccc(-c2cnc(N)cn2)c(F)c1 [Example 102, 4′-(5-Aminopyrazin-2-yl)-3′-fluoro-N-(3-hydroxy-1,1-dimethylpropyl)biphenyl-2-sulfonamide]
0.5 nM | Nc1cnc(-c2ccc(-c3ccccc3S(=O)(=O)N[C@H]3CCCC[C@@H]3CO)cc2F)cn1 (racemic) [Example 121, racemic (trans)-4′-(5-Aminopyrazin-2-yl)-3′-fluoro-N-[2-(hydroxymethyl)cyclohexyl]biphenyl-2-sulfonamide]
4.5 nM | CC(C)(CO)CNS(=O)(=O)c1ccccc1-c1ccc(-c2cnc(N)nc2)c(F)c1 [Example 251, 4′-(2-Aminopyrimidin-5-yl)-3′-fluoro-N-(3-hydroxy-2,2-dimethylpropyl)biphenyl-2-sulfonamide]
1.4 nM | Nc1cnc(-c2ccc(-c3ccccc3S(=O)(=O)N(C3CCOCC3)C3CC3)cc2F)cn1 [Example 140, 4′-(5-Aminopyrazin-2-yl)-N-cyclopropyl-3′-fluoro-N-(tetrahydro-2H-pyran-4-yl)biphenyl-2-sulfonamide]
0.5 nM | CC(NS(=O)(=O)c1ccccc1-c1ccc(-c2cnc3[nH]ccc3n2)c(F)c1)C(F)(F)F (racemic) [Example 376, 3′-Fluoro-4′-(5H-pyrrolo[2,3-b]pyrazin-2-yl)N-N-(2,2,2-trifluoro-1-methylethyl)biphenyl-2-sulfonamide]
66.2 nM | CC(C)(C)Sc1ccccc1-c1ccc(-c2cnc(N)cn2)c(F)c1 [Example 190, 5-[2′-(tert-Butylsulfanyl)-3-fluorobiphenyl-4-yl]pyrazin-2-amine]
1.3 nM | CC(NS(=O)(=O)c1ccccc1-c1ccc(-c2cnc(N)cn2)c(F)c1)C(F)(F)F (racemic) [Example 8, (racemic)-4′-(5-Aminopyrazin-2-yl)-3′-fluoro-N-(2,2,2-trifluoro-1-methylethyl)biphenyl-2-sulfonamide racemic]
13.1 nM | NC1CCN(S(=O)(=O)c2ccccc2-c2ccc(-c3cnc4c(c3)OCCN4)c(F)c2)CC1 [Example 389, 1-{[4′-(3,4-Dihydro-2H-pyrido[3,2-b][1,4]oxazin-7-yl)-3′-fluorobiphenyl-2-yl]sulfonyl}piperidin-4-amine]
1.2 nM | O=S(=O)(c1ccccc1-c1ccc(-c2cnc3[nH]ccc3n2)c(F)c1)N1CCCCC1 [Example 374, 2-[3-Fluoro-2′-(piperidin-1-ylsulfonyl)biphenyl-4-yl)-5H-pyrrolo[2,3-b]pyrazine]

same assay, conditions: human FLAP wild type, Table 6 (additional runs)

Ki | SMILES
141 nM | Nc1cnc(-c2ccc(-c3ccc(Br)cc3F)cc2F)cn1 [Example 696, 5-(4′-Bromo-2′,3-difluoroblphenyl-4-yl)pyrazin-2-amine]
1.7 nM | COc1cnc(Oc2ccccc2-c2ccc(-c3cnc(N)nc3)c(F)c2)nc1 [Example 550, 5-{3-Fluoro-2′-[(5-methoxypyrimidin-2-yl)oxy]biphenyl-4-yl}pyrimidin-2-amine]
9.8 nM | Nc1cnc(Oc2ccccc2-c2ccc(-c3cnc(N)cn3)c(F)c2)nc1 [Example 614, 2-{[4′-(5-Aminopyrazin-2-yl)-3′-fluorobiphenyl-2-yl]oxy}pyrimidin-5-amine]
7.7 nM | Nc1cnc(-c2ccc(-c3ccccc3NS(=O)(=O)c3ccccc3)cc2F)cn1 [Example 479, N-[4′-(5-Aminopyrazin-2-yl)-3′-fluorobiphenyl-2-yl]benzenesulfonamide]
19.3 nM | COc1cc(C(F)(F)F)ccc1-c1ccc(-c2cnc(N)cn2)c(F)c1 [Example 553, 5-[3-fluoro-2′-methoxy-4′-(trifluoromethyl)biphenyl-4-yl]pyrazin-2-amine]
5.1 nM | CC(C)(C)NS(=O)(=O)c1ccccc1-c1ccc(-c2cnc(N)c(F)c2)c(F)c1 [Example 430, 4′-(6-Amino-5-fluoropyridin-3-yl)-N-tert-butyl-3′-fluorobiphenyl-2-sulfonamide]
0.8 nM | CC(C)(C)NS(=O)(=O)c1ccccc1-c1ccc(-c2cnc3c(c2)CCN3)c(F)c1 [Example 431, N-tert-Butyl-4′-(2,3-dihydro-1H-pyrrolo[2,3-b]pyridin-5-yl)-3′-fluorobiphenyl-2-sulfonamide]
0.7 nM | CC(C)(C)NS(=O)(=O)c1ccccc1-c1ccc(-c2cnc3[nH]cc(CO)c3c2)c(F)c1 [Example 455, N-tert-Butyl-3′-fluoro-4′-[3-(hydroxymethyl)-1H-pyrrolo[2,3-b]pyridin-5-yl]biphenyl-2-sulfonamide]
5.4 nM | Nc1cnc(-c2ccc(-c3ccc(C(F)(F)F)cc3C(=O)N3CCOCC3)cc2F)cn1 [Example 521, 5-[3-Fluoro-2′-(morpholin-4-ylcarbonyl)-4′-(trifluoromethyl)biphenyl-4-yl]pyrazin-2-amine]
18.6 nM | N#Cc1nc(-c2ccc(-c3ccccc3S(=O)(=O)NCCO)cc2F)cnc1N [Example 413, 4′-(5-Amino-6-cyanopyrazin-2-yl)-3′-fluoro-N-(2-hydroxyethyl)biphenyl-2-sulfonamide]

same assay, conditions: human FLAP wild type, a calculated value of 0.000 indicates Ki less than 1 nM

Ki | SMILES
< 1 nM | Nc1cnc(-c2ccc(-c3ccc(C(F)(F)F)cc3S(=O)(=O)NCCO)cc2F)cn1 [Example 210, 4′-(5-aminopyrazin-2-yl)-3′-fluoro-N-(2-hydroxyethyl)-4-(trifluoromethyl)biphenyl-2-sulfonamide]
< 1 nM | CC(C)(CCO)NS(=O)(=O)c1ccccc1-c1ccc(-c2cnc(N)cn2)c(F)c1 [Example 102, 4′-(5-Aminopyrazin-2-yl)-3′-fluoro-N-(3-hydroxy-1,1-dimethylpropyl)biphenyl-2-sulfonamide]
< 1 nM | Nc1cnc(-c2ccc(-c3ccccc3S(=O)(=O)N[C@H]3CCCC[C@@H]3CO)cc2F)cn1 (racemic) [Example 121, racemic (trans)-4′-(5-Aminopyrazin-2-yl)-3′-fluoro-N-[2-(hydroxymethyl)cyclohexyl]biphenyl-2-sulfonamide]
< 1 nM | CC(NS(=O)(=O)c1ccccc1-c1ccc(-c2cnc3[nH]ccc3n2)c(F)c1)C(F)(F)F (racemic) [Example 376, 3′-Fluoro-4′-(5H-pyrrolo[2,3-b]pyrazin-2-yl)N-N-(2,2,2-trifluoro-1-methylethyl)biphenyl-2-sulfonamide]
